US11554048B2, “System and method for treating meibomian gland dysfunction” (The Schepens Eye Research Institute, Inc., priority 2018, dated 2023)

System: iHMGEC
Assay: Terminal differentiation of iHMGECs under low oxygen combined with phospholipidosis-inducing drug
Assay type: cell-based, human
Conditions: low oxygen levels combined with drug exposure, 10 μg/ml
Text: This hypoxic effect is associated with a significant rise in the number and size of lysosomes, as well as increased DNase II activity and decreased Lamp-1 expression. These latter changes are consistent with heightened terminal differentiation and holocrine secretion.

Structure (SMILES): CC[C@H]1OC(=O)[C@H](C)[C@@H](O[C@H]2C[C@@](C)(OC)[C@@H](O)[C@H](C)O2)[C@H](C)[C@@H](O[C@@H]2O[C@H](C)C[C@H](N(C)C)[C@H]2O)[C@](C)(O)C[C@@H](C)CN(C)[C@H](C)[C@@H](O)[C@]1(C)O [azithromycin]
- hypoxic influence on terminal differentiation: further enhanced
